Test results taken from US5571942A, “Ring-substituted 2-amino-1,2,3,4-tetrahydronaphthalenes and 3-aminochromanes” (Eli Lilly and Company, priority 1995, dated 1996).

What was measured:
Set-up in all cases: species or system rat (male Sprague-Dawley)
5-HT1A receptors [1] = target: T1, 5-HT1A receptors (Rattus norvegicus, UniProt P19327); assay: in vivo lowering of brain 5-HIAA levels (5-HT1A agonist activity); conditions: one hour after treatment
T1 construct: from tissue; host or cells: cerebral cortex (crude synaptosomal membranes) of male Sprague-Dawley rats
T1 sequence (P19327 1-422): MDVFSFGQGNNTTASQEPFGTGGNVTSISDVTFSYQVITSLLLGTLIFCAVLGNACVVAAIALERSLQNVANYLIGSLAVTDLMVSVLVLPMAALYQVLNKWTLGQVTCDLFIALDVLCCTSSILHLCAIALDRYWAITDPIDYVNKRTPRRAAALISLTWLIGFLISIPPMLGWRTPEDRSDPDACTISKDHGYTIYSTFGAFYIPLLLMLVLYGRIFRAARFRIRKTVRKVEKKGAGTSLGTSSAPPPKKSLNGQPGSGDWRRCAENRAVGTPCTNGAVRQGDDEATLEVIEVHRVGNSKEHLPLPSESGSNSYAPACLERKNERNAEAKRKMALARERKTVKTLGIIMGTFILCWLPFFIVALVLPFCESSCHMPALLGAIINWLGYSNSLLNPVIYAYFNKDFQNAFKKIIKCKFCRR
Method: (§1) Compounds of this invention were also examined for their in vivo effects on brain 5-HIAA and serum corticosterone levels. Male Sprague-Dawley rats weighting 150-200 g were administered subcutaneously or orally with aqueous solutions of the test compound. One hour after treatment, the rats were decapitated and trunk blood collected. The blood was allowed to clot and then was centrifuged to separate the serum. The concentration of corticosterone in the serum was determined by the spectrofluorometric method of Solem, J. H.; Brinck-Johnsen, T., Scand. J. Clin. Invest. [Suppl. 80], 17, 1 (1965). The whole brains from the decapitated rats were quickly removed, frozen on dry ice, and stored at -15° C. 5-HIAA concentrations were measured by liquid chromatography with electrochemical detection as described by Fuller, R. W.; Snoddy, H. D.; Perry, K. W., Life Sci. 40, 1921 (1987).
(§2) The results provided in columns 3-5 are indicative of 5-HT1A agonist activity.

5-HT1A receptors [2] = target: T1, 5-HT1A receptors; assay: in vitro binding: inhibition of 3H-8-OH-DPAT binding to synaptosomal membranes from rat cerebral cortex; conditions: 3H-8-OH-DPAT 2 nM, 37° C., 10 min, pH 7.4
Description: Sites specifically labeled by tritiated 8-hydroxy-2-dipropylamino-1,2,3,4-tetrahydronaphthalene (^3 H-8-OH-DPAT) have been identified as 5-HT1A receptors. This general procedure is set forth in Wong et al., J. Neural Transm. 71:207-218 (1988).
Male Sprague-Dawley rats (110-150 g) from Harlan Industries (Cumberland, Ind.) were fed a Purina Chow ad libitum for at least 3 days before being used in the studies. Rats were killed by decapitation. The brains were rapidly removed, and the cerebral cortices were dissected out at 4° C.
Brain tissues were homogenized in 0.32M sucrose. After centrifugation at 1000×g for 10 min and then at 17000×g for 20 min, a crude synaptosomal fraction was sedimented. The pellet was suspended in 100 vol of 50 mM Tris-HCl, pH 7.4, incubated at 37° C. for 10 min, and centrifuged at 50000×g for 10 min. The process was repeated and the final pellet was suspended in ice-chilled 50 mM Tris-HCl, pH 7.4.
Binding of ^3 H-8-OH-DPAT was performed according to the previously described method [Wong et al., J. Neural Transm. 64:251-269 (1985)]. Briefly, synaptosomal membranes isolated from cerebral cortex were incubated at 37° C. for 10 min. in 2 ml of 50 mM Tris-HCl, pH 7.4; 10 mM pargyline; 0.6 mM ascorbic acid; 5 mM CaCl2; 2 nM ^3 H-8-OH-DPAT and 0.1 to 1000 nm of the compound of interest. Binding was terminated by filtering samples under reduced pressure through glass fiber (GFB) filters. The filters were washed twice with 5 ml of ice cold buffer and placed in scintillation vials with 10 ml of PCS (Amersham/Searle) scintillation fluid. Radioactivity was measured with a liquid scintillation spectrometer. Unlabeled 8-OH-DPAT at 10 μM was also included in separate samples to establish non-specific binding. Specific binding of ^3 H-8-OH-DPAT is defined as the difference of radioactivity bound in the absence and in the presence of 10 μM unlabeled 8-OH-DPAT.
as §2

5-HT1A receptors [3] = target: T1, 5-HT1A receptors; assay: in vivo elevation of serum corticosterone levels (5-HT1A agonist activity); conditions: sc, one hour after treatment
Method: as §1, §2

Structure (SMILES) | 5-HIAA MED (minimum effective dose lowering brain 5-HIAA levels) (5-HT1A receptors [1]; sc) [mg/kg] | IC50 (5-HT1A receptors [2]) [nM] | Corticosterone MED (minimum effective dose elevating serum corticosterone levels) (5-HT1A receptors [3]) [mg/kg] | 5-HIAA MED (minimum effective dose lowering brain 5-HIAA levels) (5-HT1A receptors [1]; po) [mg/kg]
CCCN(CCC)C1CCc2cccc(-c3ccn(C)n3)c2C1 (stereo not shown) [5 (3-yl), 2-Di-n-propylamino-8-(1-methylpyrazol-3-yl)-1,2,3,4-tetrahydronaphthalene] | > 1.0 | 5 | 1.0 | 
CCCN(CCC)C1CCc2cccc(-c3ccnn3C)c2C1 (stereo not shown) [5 (5-yl), 2-Di-n-propylamino-8-(1-methylpyrazol-5-yl)-1,2,3,4-tetrahydronaphthalene] |  | 7.2 |  | 
CCCN(CCC)C1CCc2cccc(-c3noc(-c4ccccc4)n3)c2C1 (stereo not shown) [Example 2, 2-Di-n-propylamine-8-(5-phenyl-1,2,4-oxadiazol-3-yl)-1,2,3,4-tetrahydronaphthalene] |  | 36 |  | 
CCCN(CCC)C1CCc2cccc(-c3cc(O)[nH]n3)c2C1 (stereo not shown) [Example 6, 2-Di-n-propylamino-8-(5-hydroxypyrazol-3-yl)-1,2,3,4-tetrahydronaphthalene] |  | 62 |  | 
CCCN(CCC)C1CCc2cccc(-c3ccno3)c2C1 (stereo not shown) [Example 8, 2-Di-n-propylamino-8-(isoxazol-5-yl)-1,2,3,4-tetrahydronaphthalene] | 0.1 |  | 0.3 | 3
CCCN(CCC)C1CCc2cccc(-c3nccs3)c2C1 (stereo not shown) [Example 9, 2-Di-n-propylamino-8-(thiazol-2-yl)-1,2,3,4-tetrahydronaphthalene] | > 1.0 | 12 | > 1.0 | 
CCCN(CCC)C1CCc2cccc(-c3csc(N)n3)c2C1 (stereo not shown) [Example 10, 2-Di-n-propylamino-8-(2-aminothiazol-4-yl)-1,2,3,4-tetrahydronaphthalene] |  | 19 |  | 
CCCN(CCC)C1CCc2cccc(-c3cscn3)c2C1 (stereo not shown) [Example 11, 2-Di-n-propylamino-8-(thiazol-4-yl)-1,2,3,4-tetrahydronaphthalene] | > 1.0 | 4.9 | > 1.0 | 
CCCN(CCC)C1CCc2cccc(-c3ccc4ccccc4n3)c2C1 (stereo not shown) [Example 12, 2-Di-n-propylamino-8-(quinol-2-yl)-1,2,3,4-tetrahydronaphthalene] |  | 87 |  | 
CCCN(CCC)C1CCc2cccc(-c3cnc4ccccc4c3)c2C1 (stereo not shown) [Example 13, 2-Di-n-propylamino-8-(quinol-3-yl)-1,2,3,4-tetrahydronaphthalene] |  | 16 |  | 
CCCN(CCC)C1CCc2cccc(-c3cccnc3)c2C1 (stereo not shown) [Example 14, 2-Di-n-propylamino-8-(pyrid-3-yl)-1,2,3,4-tetrahydronaphthalene] | > 1.0 | 7.2 | > 1.0 | 
CCCN(CCC)C1CCc2cccc(-c3ccccn3)c2C1 (stereo not shown) [Example 15, 2 -Di-n-propylamino-8-(pyrid-2-yl)-1,2,3,4-tetrahydronaphthalene] |  | 33 |  | 
CCCN(CCC)C1CCc2cccc(-c3ccncc3)c2C1 (stereo not shown) [Example 16, 2-Di-n-propylamino-8-(pyrid-4-yl)-1,2,3,4-tetrahydronaphthalene] | > 1.0 | 9.8 | > 1.0 | 
CCCN(CCC)C1CCc2cccc(-c3noc4ccccc34)c2C1 (stereo not shown) [Example 17, 2-Di-n-propylamino-8-(indoxazin-3-yl)-1,2,3,4-tetrahydronaphthalene] | > 1.0 | 5 | > 1.0 | 
CCCN(CCC)C1CCc2cccc(-c3cc(Br)no3)c2C1 (stereo not shown) [Example 20, 2-Di-n-propylamino-8-(3-bromoisoxazol-5-yl)-1,2,3,4-tetrahydronaphthalene] | > 1.0 |  | > 1.0 | 
CCCN(CCC)C1CCc2cccc(-c3oncc3C)c2C1 (stereo not shown) [Example 21, 2-Di-n-propylamino-8-(4-methylisoxazol-5-yl)-1,2,3,4-tetrahydronaphthalene] | 0.3 |  | 1.0 | > 10
CCCN(CCC)C1CCc2cccc(-c3cc(C)no3)c2C1 (stereo not shown) [Example 23, 2-Di-n-propylamino-8-(3-methylisoxazol-5-yl)-1,2,3,4-tetrahydronaphthalene] | 1.0 |  | > 1.0 | 
CCCN(CCC)C1CCc2cccc(-c3ccon3)c2C1 (stereo not shown) [Example 25] | 0.3 | 1.4 | 0.3 | 10
CCCN(CCC)C1CCc2cccc(-c3nocc3C)c2C1 (stereo not shown) [Example 26, 2-Di-n-propylamino-8-(4-methylisoxazol-3-yl)-1,2,3,4-tetrahydronaphthalene] | 1.0 | 6.4 | > 1.0 | 
CCCN(CCC)C1CCc2cccc(-c3cc(C)on3)c2C1 (stereo not shown) [Example 28, 2-Di-n-propylamino-8-(5-methylisoxazol-3-yl)-1,2,3,4-tetrahydronaphthalene] | > 1.0 | 3.8 | > 1.0 | 
CCCN(CCC)C1CCc2cccc(-c3cc(SC)no3)c2C1 (stereo not shown) [Example 30, 2-Di-n-propylamino-8-(3-methylthioisoxazol-5-yl)-1,2,3,4-tetrahydronaphthalene] | > 1.0 |  | > 1.0 | 
CCCN(CCC)C1CCc2cccc(-c3oncc3OC)c2C1 (stereo not shown) [Example 31, 2-Di-n-propylamino-8-(4-methoxyisoxazol-5-yl)-1,2,3,4-tetrahydronaphthalene] | 1.0 |  | > 1.0 | 
CCCN(CCC)C1CCc2cccc(-c3ccnc(N)n3)c2C1 (stereo not shown) [Example 32, 2-Di-n-propylamino-8-(2-aminopyrimidin-4-yl)-1,2,3,4-tetrahydronaphthalene] |  | 67 |  | 
CCCN(CCC)C1CCc2cccc(-c3nc(-c4ccccc4)no3)c2C1 (stereo not shown) [Example 34, 2-Di-n-propylamino-8-(3-phenyl-1,2,4-oxadiazol-5-yl)-1,2,3,4-tetrahydronaphthalene] |  | 11 |  | 
CCCN(CCC)C1CCc2cccc(-c3nc(C)no3)c2C1 (stereo not shown) [Example 35, 2-Di-n-propylamino-8-(3-methyl-1,2,4-oxidiazol-5-yl)-1,2,3,4-tetrahydronaphthalene] |  | 16 |  | 
